Test results as given in patent US9056865B2, “Pyridine-2-derivatives as smoothened receptor modulators” (Pfizer Inc., priority 2010, dated 2015).

Experiments:
human Smo = human Smo (Homo sapiens (Human), UniProt Q99835); assay: Smo radioligand competition binding assay; settings: for inhibition at 0.05 µM: 0.05 μM test compound, read-out: Smo % inh. @ 0.05 μM
Method in brief: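 Membranes from HEK293 cells expressing surface human Smo 181-781 (40 μg protein/well) incubated 2 h at room temperature with test compound and tritiated Smo antagonist (3 nM), pH 7.5 Tris buffer; filtration and scintillation counting. Non-specific binding defined with 30 μM cold antagonist; IC50 from four-parameter sigmoidal fit.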

Gli-Luc/MEF cells = assay: Gli-Luc/MEF assay; type: cell-based, mouse; settings: Mus musculus, MEF; Shh-stimulated luciferase, 48 hours
Method in brief: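 Mouse embryonic fibroblasts from Gli-Luc transgenic mice (luciferase under Gli response element) dosed with compounds (final […], 3-fold series), then stimulated with recombinant mouse Shh at final 2 μg/mL. After 48 h at 37 °C, luminescence read by Bright-Glo; IC50 from inhibition of Shh-induced signal.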

human Smo, sequence (Q99835 181-787): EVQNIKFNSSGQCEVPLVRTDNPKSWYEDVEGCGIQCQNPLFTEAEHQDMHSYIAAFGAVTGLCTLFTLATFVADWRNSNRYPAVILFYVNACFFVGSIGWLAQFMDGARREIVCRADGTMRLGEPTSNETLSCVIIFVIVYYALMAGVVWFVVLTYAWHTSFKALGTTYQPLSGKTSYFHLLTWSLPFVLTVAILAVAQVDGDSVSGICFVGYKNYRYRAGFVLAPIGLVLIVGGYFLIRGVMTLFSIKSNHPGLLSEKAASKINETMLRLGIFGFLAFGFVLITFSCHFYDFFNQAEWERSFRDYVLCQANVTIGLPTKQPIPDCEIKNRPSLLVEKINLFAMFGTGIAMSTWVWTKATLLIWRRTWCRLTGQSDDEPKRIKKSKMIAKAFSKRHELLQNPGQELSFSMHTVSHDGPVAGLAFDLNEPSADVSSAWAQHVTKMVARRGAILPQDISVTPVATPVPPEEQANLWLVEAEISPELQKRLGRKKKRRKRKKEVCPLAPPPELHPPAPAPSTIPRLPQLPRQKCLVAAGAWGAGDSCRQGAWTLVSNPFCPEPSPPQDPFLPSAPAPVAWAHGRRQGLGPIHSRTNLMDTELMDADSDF

SMILES	IC50 (human Smo)	inhibition at 0.05 µM (human Smo)	IC50 (Gli-Luc/MEF cells)
COC(=O)N1CCN(c2cc(-c3ncc(C)cc3C)c(Cl)cn2)CC1 [Example A-101, methyl 4-(5′-chloro-3,5-dimethyl-2,4′-bipyridin-2′-yl)piperazine-1-carboxylate]	0.0724 µM	89%	0.0302 µM
Cc1cnc(-c2cc(N3CCN(C(=O)CO)CC3)ncc2Cl)c(C)c1 [Example A-102, 2-[4-(5′-chloro-3,5-dimethyl-2,4′-bipyridin-2′-yl)piperazin-1-yl]-2-oxoethanol]	0.0579 µM	84%	0.0601 µM
Cc1cnc(-c2cc(N3CCN(C(=O)CC(C)(C)O)CC3)ncc2Cl)c(C)c1 [Example A-103, 4-[4-(5′-chloro-3,5-dimethyl-2,4′-bipyridin-2′-yl)piperazin-1-yl]-2-methyl-4-oxobutan-2-ol]	0.0194 µM	98%	0.0117 µM
Cc1cnc(-c2cc(N3CCN(S(C)(=O)=O)CC3)ncc2Cl)c(C)c1 [Example A-104, 5′-chloro-3,5-dimethyl-2′-[4-(methylsulfonyl)piperazin-1-yl]-2,4′-bipyridine]	0.036 µM	92.9%	0.0127 µM
Cc1cnc(-c2cc(N3CCN(C(=O)CN(C)C)CC3)ncc2Cl)c(C)c1 [Example A-105, 2-[4-(5′-chloro-3,5-dimethyl-2,4′-bipyridin-2′-yl)piperazin-1-yl]-N,N-dimethyl-2-oxoethanamine]	0.0824 µM	84.5%	0.0123 µM
Cc1cnc(-c2cc(N3CCN(C(=O)CCO)CC3)ncc2Cl)c(C)c1 [Example A-106, 3-[4-(5′-chloro-3,5-dimethyl-2,4′-bipyridin-2′-yl)piperazin-1-yl]-3-oxopropan-1-ol]	0.0657 µM	86%	0.0365 µM
Cc1cccnc1-c1cc(N2[C@@H]3CC[C@H]2CN(C(=O)CC(C)(C)O)C3)ncc1Cl [Example A-107, 1-[(1R,5S)-8-(5′-chloro-3-methyl-2,4′-bipyridin-2′-yl)-3,8-diazabicyclo[3.2.1]oct-3-yl]-3-hydroxy-3-methylbutan-1-one]		82.7%	0.0415 µM
Cc1cc(F)cnc1-c1cc(N2CCC(NS(C)(=O)=O)CC2)ncc1Cl [Example A-108, N-[1-(5′-chloro-5-fluoro-3-methyl-2,4′-bipyridin-2′-yl)piperidin-4-yl]methanesulfonamide]	0.0208 µM	91.5%	0.0112 µM
Cc1cc(Cl)cnc1-c1cc(N2CCC(NS(C)(=O)=O)CC2)ncc1Cl [Example A-109, N-[1-(5,5′-dichloro-3-methyl-2,4′-bipyridin-2′-yl)piperidin-4-yl]methanesulfonamide]	0.0205 µM	97.4%	0.00681 µM
COCCS(=O)(=O)N1CCN(c2cc(-c3ncc(C)cc3C)c(Cl)cn2)CC1 [Example A-110, 5′-chloro-2′-{4-[(2-methoxyethyl)sulfonyl]piperazin-1-yl}-3,5-dimethyl-2,4′-bipyridine]	0.0292 µM	94.4%	0.0124 µM
Cc1cnc(-c2cc(N3CCN(S(=O)(=O)CCO)CC3)ncc2Cl)c(C)c1 [Example A-111, 2-{[4-(5′-chloro-3,5-dimethyl-2,4′-bipyridin-2′-yl)piperazin-1-yl]sulfonyl}ethanol]	0.0233 µM	95%	0.0102 µM
Cc1cnc(-c2cc(N3CCN(CCS(C)(=O)=O)CC3)ncc2Cl)c(C)c1 [Example A-112, 5′-chloro-3,5-dimethyl-2′-{4-[2-(methylsulfonyl)ethyl]piperazin-1-yl}-2,4′-bipyridine]	0.124 µM	72.9%	0.0253 µM
Cc1cnc(-c2cc(N3CCC(NC(=O)CO)CC3)ncc2Cl)c(C)c1 [Example A-113, N-[1-(5′-chloro-3,5-dimethyl-2,4′-bipyridin-2′-yl)piperidin-4-yl]-2-hydroxyacetamide]	0.0556 µM	84%	0.0117 µM
Cc1cnc(-c2cc(N3CCC(NC(=O)CN(C)C)CC3)ncc2Cl)c(C)c1 [Example A-114, N-(1-(5′-chloro-3,5-dimethyl-[2,4′-bipyridin]-2′-yl)piperidin-4-yl)-2-(dimethylamino)acetamide]	0.0192 µM	94.5%	0.00386 µM
Cc1ccc(-c2cccc(N3CCC(NS(C)(=O)=O)CC3)n2)nc1 [Example A-115, N-[1-(5′-methyl-2,2′-bipyridin-6-yl)piperidin-4-yl]methanesulfonamide]	0.022 µM	93%	0.016 µM
Cc1ccc(-c2nc(N3CCC(NS(C)(=O)=O)CC3)ccc2Cl)nc1 [Example A-117, N-[1-(3-chloro-5′-methyl-2,2′-bipyridin-6-yl)piperidin-4-yl]methanesulfonamide]	0.017 µM	96%	0.011 µM

SMILES	IC50 (human Smo)	inhibition at 0.05 µM (human Smo)	IC50 (Gli-Luc/MEF cells)
Cc1cnc(-c2cc(N3CCC(CS(N)(=O)=O)CC3)ncc2Cl)c(C)c1 [Example A-118, 1-[1-(5′-chloro-3,5-dimethyl-2,4′-bipyridin-2′-yl)piperidin-4-yl]methanesulfonamide]	0.0111 µM	93.8%	0.00846 µM
Cc1ccc(-c2nc(N3CCC(NS(C)(=O)=O)CC3)ncc2Cl)nc1 [Example A-119, N-{1-[5-chloro-4-(5-methylpyridin-2-yl)pyrimidin-2-yl]piperidin-4-yl}methanesulfonamide]	0.0589 µM	88.5%	0.0229 µM
Cc1ccc(-c2nc(N3CCC(NS(C)(=O)=O)CC3)ccc2Br)nc1 [Example A-120, N-[1-(3-bromo-5′-methyl-2,2′-bipyridin-6-yl)piperidin-4-yl]methanesulfonamide]	0.04 µM	93%	0.029 µM
CCS(=O)(=O)NC1CCN(c2cc(-c3ncc(C)cc3C)c(Cl)cn2)CC1 [Example A-121, N-[1-(5′-chloro-3,5-dimethyl-2,4′-bipyridin-2′-yl)piperidin-4-yl]ethanesulfonamide]	0.0116 µM	101%	0.00425 µM
Cc1cnc(-c2cc(N3CCC(NC(=O)CCS(C)(=O)=O)CC3)ncc2Cl)c(C)c1 [Example A-122, N-[1-(5′-chloro-3,5-dimethyl-2,4′-bipyridin-2′-yl)piperidin-4-yl]-3-(methylsulfonyl)propanamide]	0.0147 µM	103%	0.00549 µM
COCCS(=O)(=O)NC1CCN(c2ccc(Cl)c(-c3ccccn3)n2)CC1 [Example A-123, N-[1-(3-chloro-2,2′-bipyridin-6-yl)piperidin-4-yl]-2-methoxyethanesulfonamide]	0.0267 µM	90.4%	0.0141 µM
Cc1cc(C#N)cnc1-c1cc(N2CCC(NS(C)(=O)=O)CC2)ncc1Cl [Example A-125, N-[1-(5′-chloro-5-cyano-3-methyl-2,4′-bipyridin-2′-yl)piperidin-4-yl]methanesulfonamide]	0.0956 µM	82.3%	0.0323 µM
O=S(=O)(CCO)NC1CCN(c2ccc(Cl)c(-c3ccccn3)n2)CC1 [Example A-126, N-[1-(3-chloro-2,2′-bipyridin-6-yl)piperidin-4-yl]-2-hydroxyethanesulfonamide]	0.0152 µM	96.1%	0.0103 µM
Cc1cnc(-c2cc(N3CCC(NS(=O)(=O)C4CC4)CC3)ncc2Cl)c(C)c1 [Example A-127, N-[1-(5′-chloro-3,5-dimethyl-2,4′-bipyridin-2′-yl)piperidin-4-yl]cyclopropanesulfonamide]	0.0115 µM	97.8%	0.00503 µM
CS(=O)(=O)CCC(=O)NC1CCN(c2ccc(Cl)c(-c3ccccn3)n2)CC1 [Example A-128, N-[1-(3-chloro-2,2′-bipyridin-6-yl)piperidin-4-yl]-3-(methylsulfonyl)propanamide]	0.0313 µM	95%	0.0152 µM
CN(C)CC(=O)NC1CCN(c2ccc(Cl)c(-c3ccccn3)n2)CC1 [Example A-129, N-(1-(3-chloro-[2,2′-bipyridin]-6-yl)piperidin-4-yl)-2-(dimethylamino)acetamide]	0.0543 µM	88.4%	0.00812 µM
O=C(CCO)NC1CCN(c2ccc(Cl)c(-c3ccccn3)n2)CC1 [Example A-130, N-[1-(3-chloro-2,2′-bipyridin-6-yl)piperidin-4-yl]-3-hydroxypropanamide]		81.3%	0.0355 µM
CC(C)(O)CC(=O)NC1CCN(c2ccc(Cl)c(-c3ccccn3)n2)CC1 [Example A-131, N-[1-(3-chloro-2,2′-bipyridin-6-yl)piperidin-4-yl]-3-hydroxy-3-methylbutanamide]	0.0305 µM	92.7%	0.0207 µM
CCS(=O)(=O)NC1CCN(c2ccc(Cl)c(-c3ccccn3)n2)CC1 [Example A-132, N-[1-(3-chloro-2,2′-bipyridin-6-yl)piperidin-4-yl]ethanesulfonamide]	0.0382 µM	92%	0.0337 µM
O=S(=O)(NC1CCN(c2ccc(Cl)c(-c3ccccn3)n2)CC1)C1CC1 [Example A-133, N-[1-(3-chloro-2,2′-bipyridin-6-yl)piperidin-4-yl]cyclopropanesulfonamide]		94.3%	0.0117 µM
Cc1cnc(-c2cc(N3CCC(S(C)(=O)=O)CC3)ncc2Cl)c(C)c1 [Example A-134, 5′-chloro-3,5-dimethyl-2′-[4-(methylsulfonyl)piperidin-1-yl]-2,4′-bipyridine]	0.114 µM	80.8%	0.0377 µM
